Publication PMC10583824, “The rational design of ARUK2007145, a dual inhibitor of the α and γ isoforms of the lipid kinase phosphatidylinositol 5-phosphate 4-kinase (PI5P4K)” (RSC Medicinal Chemistry, 2023)
Converted amounts (≈) assume the structure as drawn.

Experiments:
[1] = Turbidimetric aqueous solubility; format: physicochemical; settings: pH 7.4, turbidimetric
Protocol: (§1) ADMET experimental methods […]
Turbidimetric aqueous solubility: analysis was performed by Cyprotex Discovery. Compound in DMSO at 10 mM was serially diluted to solutions of 0.1, 0.3, 1 and 3 mM in DMSO, then further diluted 1 in 100 in buffer (0.01 M PBS, pH 7.4, 1% DMSO final). 7 replicate wells of each dilution were equilibrated for 2 hours at 37 °C before absorbance is measured at 620 nm. The solubility is estimated from the concentration of test compound that produces an increase in absorbance above vehicle control (1% DMSO in buffer). […]

MDR1 (P-gp) = experiment: MDR1-MDCK bi-directional permeability and efflux; settings: dog, MDCK-MDR1
Protocol: (§2) MDR1-MDCK Permeability (bi-directional): was performed by Cyprotex Discovery. Briefly, compounds were administered at 10 µM (1% DMSO final) to the apical or basolateral side of a confluent monolayer of MDR1-MDCK cells, then incubated at 37 °C for 60 minutes before appearance on the opposite side of the monolayer was determined LC-MS/MS. The efflux ratio (ER) is calculated from the ratio of B-A to A-B permeabilities.

MDCK-MDR1 cells = experiment: MDR1-MDCK bi-directional permeability and efflux; settings: MDCK-MDR1 cells; A2B; 10 µM
Protocol: as §2

PI5P4Kα = biological target: T1, PI5P4Kα (Homo sapiens, UniProt P48426); settings: for PI5P4Kα pIC50: ADP-Glo, footnote a: inconsistent replicates, value shown is upper limit
T1 sequence (P48426 1-406): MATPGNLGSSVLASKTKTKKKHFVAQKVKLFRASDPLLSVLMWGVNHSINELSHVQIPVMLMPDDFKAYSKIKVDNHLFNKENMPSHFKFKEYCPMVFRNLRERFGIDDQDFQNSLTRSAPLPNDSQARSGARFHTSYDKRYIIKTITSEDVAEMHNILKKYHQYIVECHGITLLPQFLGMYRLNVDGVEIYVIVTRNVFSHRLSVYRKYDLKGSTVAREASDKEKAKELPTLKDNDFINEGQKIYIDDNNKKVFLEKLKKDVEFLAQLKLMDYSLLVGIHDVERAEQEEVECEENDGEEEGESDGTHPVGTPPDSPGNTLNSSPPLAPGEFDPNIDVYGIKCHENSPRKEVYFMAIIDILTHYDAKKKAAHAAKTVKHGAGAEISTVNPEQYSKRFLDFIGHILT

PI5P4Kγ+ [2] = biological target: T2, PI5P4Kγ+ (Homo sapiens, UniProt Q8TBX8, D138G/D197E/E133P/E135D/E153T/E196G/G139A/N195G/S132L/S134N); experiment: biochemical
T2 sequence (Q8TBX8 with tags, fused parts or gaps INS131LPN/S132D/E133S/S134Q/E135A/G136R/D138G/G139A/E153T/N195G/E196G/D197E): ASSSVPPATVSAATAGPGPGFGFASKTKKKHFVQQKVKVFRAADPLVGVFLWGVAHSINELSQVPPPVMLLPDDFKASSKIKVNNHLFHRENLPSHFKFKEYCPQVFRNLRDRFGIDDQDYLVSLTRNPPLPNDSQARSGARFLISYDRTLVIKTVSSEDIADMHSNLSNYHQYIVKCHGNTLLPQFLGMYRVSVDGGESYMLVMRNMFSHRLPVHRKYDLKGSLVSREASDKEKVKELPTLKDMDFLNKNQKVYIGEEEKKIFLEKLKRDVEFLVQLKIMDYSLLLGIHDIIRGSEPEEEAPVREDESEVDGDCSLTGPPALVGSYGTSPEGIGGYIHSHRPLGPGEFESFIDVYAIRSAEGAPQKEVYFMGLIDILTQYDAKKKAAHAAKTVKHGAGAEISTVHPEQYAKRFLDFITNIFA

PI5P4Kγ+ [3] = settings: ratio PI5P4Kα IC50 / PI5P4Kγ+ IC50, ADP-Glo
[4] = Mouse liver microsome stability; format: in vitro ADME; settings: mouse liver microsomes half-life; read-out: MLM t½
Protocol: as §1
Mouse Microsomal stability: analysis was performed by Cyprotex Discovery. Briefly, test compounds in DMSO
protein/mL) in the presence of NADPH (1 mM) at 37 °C. Aliquots were taken at time intervals (0, 5, 15, 30 and
compound remaining, allowing the determination of the half-life for the compound.

[5] = ADP-Glo pIC50 PI5P4Kγ+, Table S1, two decimals, asterisk not explained
[6] = PI5P4Kγ+ pIC50, ADP-Glo, footnote a: inconsistent replicates, value shown is upper limit

| solubility at 2 h [1] [µM] | efflux ratio at 60 min, 10 µM (MDR1 (P-gp)) | P app (A2B) (MDCK-MDR1 cells) | PI5P4Kα pIC50 (PI5P4Kα) | IC50 (PI5P4Kγ+ [2]; [5]) [nM] | IC50 (PI5P4Kγ+ [2]; [6]) [nM] | Fold-selectivity (α IC50/γ IC50) (PI5P4Kγ+ [3]) | half-life at 1 µM [4] [min] | ADP-Glo pIC50 PI5P4Kα (PI5P4Kα; Table S1, two decimals, asterisk not explained) | Compound |
| --- | --- | --- | --- | --- | --- | --- | --- | --- | --- |
| 30 (≈ 11.9 µg/mL) | 34.1 | 2.45 10^−6 cm s^−1 | 6.0 | 12.3 | 12.6 | 79 | 8.2 | – | Cc1ccncc1-c1cc2c(Nc3ccc(S(C)(=O)=O)cc3)ncnc2s1 [Compound 14] |
| 10 (≈ 3.4 µg/mL) | 3.7 | 14.2 10^−6 cm s^−1 | <6.2 | – | 50.1 | – | 51.4 | – | CS(=O)(=O)c1ccc(Nc2ncnc3scc(Cl)c23)cc1 [Compound 32] |
| 3 (≈ 1.08 µg/mL) | 0.91 | 9.95 10^−6 cm s^−1 | 7.0 | 52.5 | 50.1 | 1.9 | 1.94 | 7.01 | Cc1ncccc1-c1cc2ncnc(Nc3ccc(C4CC4)cc3)c2s1 [Compound 38] |
